Measured values reported in PMC5597618, “Identification and characterization of the novel reversible and selective cathepsin X inhibitors” (Scientific Reports, 2017).
Like-named read-outs stand apart in the source and are kept apart here.

Key:
cathepsin X [1] = target: T1, cathepsin X (Homo sapiens, UniProt Q9UBR2); assay: Determination of relative inhibition of cathepsin X; type: biochemical; set-up: made in house; host or cells: Pichia pastoris
Procedure: (§1) Recombinant or native human cathepsins were used: recombinant cathepsin X and cathepsin S were expressed in Pichia pastoris, recombinant cathepsins B and L in E. coli, [43], native cathepsin H was isolated from human liver. Assay buffers for determining activities of cathepsins X and L consisted of 100 mM sodium acetate buffer, pH 5.5, for cathepsins H, S and B (endopeptidase activity) of 100 mM phosphate buffer pH 6.8, 6.5 and 6.0, respectively and for cathepsin B (exopeptidase activity) of 60 mM acetate buffer pH 5.0. Each assay buffer contained 0.01% Triton X-100 to prevent false positive inhibition due to aggregation of compounds[45], 5 mM cysteine, 1.5 mM EDTA and 0.1% PEG 8000. Enzymes were activated at 37 °C for 5 min before the assays.
Abz-FEK(Dnp)-OH was used as cathepsin X specific substrate in activity assays. 90 μL of activated cathepsin X (20 nM) was added to a black 96-well plate with 5 μL of substrate (3.25 μM final concentration) and 5 μL of the compound (50 μM final concentration). The reaction was monitored continuously at 420 nm ± 10 nm with excitation at 320 nm ± 20 nm and at 37 °C. Relative inhibition (%) was calculated with the equation (1 − v i/v 0) × 100, where v i is reaction velocity in the presence of the compound and v 0 is reaction velocity without the compound.

cathepsin X [2] = target: T1, cathepsin X; assay: Determination of Ki values and inhibition mechanism against cathepsin X (Abz-FEK(Dnp)-OH substrate); type: biochemical; set-up: made in house; host or cells: Pichia pastoris; settings: for Inhibition mechanism: ENZO
Procedure: as §1
Ki was determined by measuring the initial rate of hydrolysis at three different substrate concentrations (Supplementary Table S2) in the presence of seven different compound concentrations (0, 20, 40, 60, 80, 100 and 200 μM). 90 μL of the activated cathepsin was added to a black 96-well plate with 5 μL of the substrate and 5 μL of the compound. Formation of the fluorescent degradation product was monitored continuously at 460 nm ± 10 nm with excitation at 380 nm ± 20 nm (for AMC substrates) and, as noted above for Abz substrates, at 37 °C. All measurements were performed twice and in duplicate. The resulting data were analyzed by non-linear regression using the software SigmaPlot®, Enzyme Kinetics Module™ 1.3 and were fitted to the equation v = v max [S]/([S] (1 + [I]/αK i ) + K m (1 + [I]/K i )) (first group of compounds). For Ki determination against cathepsin X for the compounds from the second group, progress curves in the absence and presence of each putative inhibitor were fitted to the reaction mechanism presented in Fig. 3b. In this case the resulting data as well as reactivation curves were fitted to the equation system presented in Fig. 3c using ENZO application. For calculation of kinetic parameters from reaction progress curves the fluorescence coefficient for conversion of arbitrary fluorescence units to concentration was first determined. The fluorescence coefficient was calculated as the slope from the plot of initial substrate concentration vs. height of the plateau of the progress curve after complete hydrolysis of increasing concentrations of substrate, using linear regression.
Supplementary Table S2. Substrates used for the various cathepsins and their concentrations […]
Enzyme Substrate Concentration (µM) Reference/Company cathepsin X Abz-FEK(Dnp)-OH 3.25, 6.5, 13 Puzer et al.3 cathepsin B - endopept. Z-RR-AMC 60, 180, 360 Bachem cathepsin B - exopept. Abz-GIVRAK(Dnp)-OH 1, 3, 6 Bachem cathepsin S Z-VVR-AMC 0.5, 1, 1.5 Biomol cathepsin L Z-FR-AMC 0.5, 1, 4 Bachem cathepsin H Z-R-AMC 20, 80, 160 Biomol […]

[3] = second group, 50 μM compound, 1 h preincubation, read-out: % inhibition (1 h preincubation)
[4] = screening at 50 μM compound, read-out: relative inhibition of cathepsin X
[5] = first group, SigmaPlot non-linear regression at 3 different substrate concentrations
[6] = second group, progress curve analysis with ENZO

T1 sequence (Q9UBR2 62-303): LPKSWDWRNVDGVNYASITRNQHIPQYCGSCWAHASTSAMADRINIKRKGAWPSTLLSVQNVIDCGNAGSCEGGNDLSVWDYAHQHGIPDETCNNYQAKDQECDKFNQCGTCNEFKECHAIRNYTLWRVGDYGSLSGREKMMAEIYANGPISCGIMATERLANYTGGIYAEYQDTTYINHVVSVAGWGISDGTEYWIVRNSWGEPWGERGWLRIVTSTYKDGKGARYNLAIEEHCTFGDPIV

SMILES	inhibition at 50 µM (cathepsin X [1]; [3])	also measured
Cc1[nH]c2ccccc2c1C(=O)C(C)Sc1n[nH]c(N)n1 (stereo not drawn) [Compound 15, 2-((5-Amino-1H-1,2,4-triazol-3-yl)thio)-1-(2-methyl-1H-indol-3-yl)propan-1-one]	23%	
Nc1cc(N)nc(SCC(=O)c2ccc3c(c2)OCCO3)n1 [Compound 19, 2-((4,6-Diaminopyrimidin-2-yl)thio)-1-(2,3-dihydrobenzo[b][1,4]dioxin-6-yl)ethan-1-one]	27%	
N#Cc1c(NC(=O)c2cc(OCCN)ccc2Cl)sc2c1CCCC2 [Compound 3, 5-(2-Aminoethoxy)-2-chloro-N-(3-cyano-4,5,6,7-tetrahydrobenzo[b]thiophen-2-yl)benzamide]		inhibition at 50 µM (cathepsin X [1]; [4]): 60 to 75%; Ki (cathepsin X [2]; [5]): 260 ± 31.9 µM
Nc1nc(SCC(=O)c2ccc3c(c2)OCO3)n[nH]1 [Compound 8, 2-((5-Amino-1H-1,2,4-triazol-3-yl)thio)-1-(benzo[d][1,3]dioxol-5-yl) ethanone]	67%	
O=C(CSc1nnc(N2CCCC2)n1C1CC1)c1ccc2c(c1)OCCO2 [Compound 14, 2-((4-Cyclopropyl-5-(pyrrolidin-1-yl)-4H-1,2,4-triazol-3-yl)thio)-1-(2,3-dihydrobenzo[b][1,4]dioxin-6-yl)ethanone]	74%	inhibition at 50 µM (cathepsin X [1]; [4]): > 70%; Inhibition mechanism (cathepsin X [2]; second group): competitive; Ki (cathepsin X [2]; [6]): 5.41 ± 0.19 µM
COc1ccccc1C(=O)CSc1n[nH]c(N)n1 [Compound 25, 2-((5-Amino-1H-1,2,4-triazol-3-yl)thio)-1-(2-methoxyphenyl)ethan-1-one]	50%	
O=C(CSc1nncn1-c1ccccc1)c1ccc2c(c1)OCCO2 [Compound 23, 1-(2,3-Dihydrobenzo[b][1,4]dioxin-6-yl)-2-((4-phenyl-4H-1,2,4-triazol-3-yl)thio)ethan-1-one]	72%	
Nc1nc(SCC(=O)c2ccc(Oc3ccccc3)cc2)n[nH]1 [Compound 9, 2-((5-Amino-1H-1,2,4-triazol-3-yl)thio)-1-(4-phenoxyphenyl)ethanone]	27%	
COc1ccc(C(=O)C(C)Sc2nncn2C)cc1OC (stereo not drawn) [Compound 18, 1-(3,4-Dimethoxyphenyl)-2-((4-methyl-4H-1,2,4-triazol-3-yl)thio)propan-1-one]	25%	
Cc1ccc(C(=O)CSc2n[nH]c(N)n2)cc1 [Compound 13, 2-((5-Amino-1H-1,2,4-triazol-3-yl)thio)-1-(p-tolyl)ethanone]	22%	
COc1ccccc1-n1cnnc1SCC(=O)c1ccc2c(c1)OCCO2 [Compound 24, 1-(2,3-Dihydrobenzo[b][1,4]dioxin-6-yl)-2-((4-(2-methoxyphenyl)-4H-1,2,4-triazol-3-yl)thio)ethan-1-one]	73%	
O=C(NC1CC2C(=O)NCC(=O)N2C1)c1ccc2cccnc2n1 (stereo not drawn) [Compound 5]		inhibition at 50 µM (cathepsin X [1]; [4]): 60 to 75%; Ki (cathepsin X [2]; [5]): 136 µM
O=C(CSc1nc[nH]n1)c1ccc2c(c1)OCCO2 [Compound 11, 2-((1H-1,2,4-triazol-3-yl)thio)-1-(2,3-dihydrobenzo[b][1,4]dioxin-6-yl) ethanone]	72%	
N#Cc1c(NC(=O)c2cc(OCCCN)ccc2Cl)sc2c1CCCC2 [Compound 4, 5-(3-Aminopropoxy)-2-chloro-N-(3-cyano-4,5,6,7-tetrahydrobenzo[b]thiophen-2-yl)benzamide]		inhibition at 50 µM (cathepsin X [1]; [4]): 60 to 75%; Ki (cathepsin X [2]; [5]): 230 ± 2.9 µM

The next lines start with results.

inhibition at 50 µM (cathepsin X [1]; [3])	SMILES	also measured
15%	N#Cc1ccc(C(=O)CSc2n[nH]c(N)n2)cc1 [Compound 16, 4-(2-((5-Amino-1H-1,2,4-triazol-3-yl)thio)acetyl)benzonitrile]	
44%	Cc1[nH]c2ccccc2c1C(=O)CSc1nnc[nH]1 [Compound 6, 2-((4H-1,2,4-triazol-3-yl)thio)-1-(2-methyl-1H-indol-3-yl)ethanone]	
39%	COc1ccc(C(=O)CSc2n[nH]c(N)n2)cc1F [Compound 21, 2-((5-Amino-1H-1,2,4-triazol-3-yl)thio)-1-(3-fluoro-4-methoxyphenyl)ethan-1-one]	
72%	O=C(CSc1nc(C2CC2)n[nH]1)c1ccc2c(c1)OCCO2 [Compound 17, 2-((3-Cyclopropyl-1H-1,2,4-triazol-5-yl)thio)-1-(2,3-dihydrobenzo[b][1,4]dioxin-6-yl)ethan-1-one]	inhibition at 50 µM (cathepsin X [1]; [4]): > 70%; Inhibition mechanism (cathepsin X [2]; second group): competitive; Ki (cathepsin X [2]; [6]): 7.35 ± 0.28 µM
64%	Nc1nc(SCC(=O)c2ccc(-c3ccccc3)cc2)n[nH]1 [Compound 10, 1-([1,1′-Biphenyl]-4-yl)-2-((5-amino-1H-1,2,4-triazol-3-yl)thio)ethanone]	
0%	COc1cc2c(cc1OC)CN(C(=O)CSc1n[nH]c(N)n1)CC2 [Compound 7, 2-((5-Amino-1H-1,2,4-triazol-3-yl)thio)-1-(6,7-dimethoxy-3,4-dihydroisoquinolin-2(1 H)-yl)ethanone]	relative inhibition of cathepsin X (cathepsin X [1]; screening at 50 μM compound): devoid of any inhibitory activity
